We go through four compounds from US12594421B2, “Compositions and methods for increasing cancer cell sensitivity to alternating electric fields” (NOVOCURE GMBH, priority 2020, dated 2026).

Molecules are shown by their SMILES.

In data set [1] the test system is cancer cells. Kind of data set: Cell cytotoxicity, TTFields plus GSK3β inhibitor 9-ING-41 (FIG. 19). The data set is classed as cell-based. The conditions noted are these: cell line and concentration not stated. How it is done:
(§1) Cells were detached from Inovitro™ dishes with 0.5 ml Trypsin A for approximately 5 minutes and then supplemented with 0.5 ml culture media. 200 μl of cells were taken to 96 well U-shaped plate to be counted in MACSQuant 10 flow cytometer. Analysis was performed with FlowJo_V10 software and statistics was done by GraphPad Prism 8 software.

Data set [2] deals with cancer cells. Description: Apoptosis, TTFields plus GSK3β inhibitor 9-ING-41 (FIG. 19). The format is cell-based. As to conditions: cell line and concentration not stated. The protocol: (§2) Cell death was assessed by double staining of cells with FITC-conjugated annexin V (MEBCYTO© 4700 Apoptosis Kit; MBL©) and 7-Aminoactinomycin D (7-AAD; BioLegend©) as per manufacturer's instructions.

The subject of data set [3] is A2780 cells. The format is cell-based. The conditions noted are these: for inhibition concentration 25 (IC25): concentration added for 72 h, cell line not stated in b192 (8 nM is the A2780 concentration of b155). The protocol:
(§3) All cell lines were obtained from ATCC: U-87 (human glioma cell lines) and H1299 (human metastatic lung carcinoma), A2780 (ovarian cell line). Cells were cultured in Dulbecco's modified Eagle's medium (Biological Industries) or RPMI (GIBCO) medium supplemented with 5-10% fetal bovine serum and antibiotics.
5,000-50,000 single cells were suspended in 500 μL of media and seeded in the middle of a 22 mm diameter cover slip.
(§4) For induction of 24 hours or longer TTFields application the cover slips were placed in a ceramic dish of Inovitro™ system and allowed to incubate in a conventional tissue culture incubator (37° C., 95% air, 5% CO2) overnight. Once cells adhered to the cover slip, an additional 1.5 mL of media were added to each well and covered in Parafilm (P7793, Sigma Aldrich) to avoid evaporation of media. After an overnight incubation dishes were mounted onto Inovitro™ base plates (Novocure Inc., Haifa, Israel). Tumor Treating electric fields set anywhere from 1-6 V/cm were applied through an Inovitro™ power generator while frequencies ranged from 50-500 kHz. Incubation temperature was 18° C. with a target temperature of 37° C. for the ceramic dishes upon application of the TTFields. Corresponding control experiments were done by placing equivalent cover slips within ceramic dishes into a conventional tissue culture incubator (37° C., 5% CO2) and cells grown in parallel with the TTField-exposed coverslips.
(§5) BGT226, Alpalisib, Pictilisib, BKM120 and Dasatinib were added was added to cells 12-24 hours after seeding for inhibitor mono-treatment and combination treatment to a final concentration of 8 nM, 1 nm, 1 nm, 500 nm and 75 nm respectively in A2780 cells. Control and TTFields samples received same volume of DMSO. Following 72 hours of treatment media was replaced for media with no inhibitor and cells were grown for additional 96 hours. At 168 hours (7 days) cytotoxic assay was performed by GentelMACS cell count, Apoptosis assay and cells were seeded for colony assay (as specified in cell count and Quantification of cell death).
as §1

Data set [4] concerns A2780 cells. Description: Apoptosis assay (annexin V / 7-AAD), TTFields plus inhibitor. The conditions noted are these: FIG. 6E. The data set is classed as cell-based, human. The protocol: as §5, §2
Data set [5] relates to A2780 cells. Kind of data set: Colony assay (clonogenicity), TTFields plus inhibitor. The format is cell-based, human. As to conditions: FIG. 18; BGT226 8 nM 72 h, then TTFields alone 96 h. The protocol: as §5
Colony assay: following cell count 300 cells of each treatment were seeded in duplicates in 6 well dishes with 2 ml media. Once colonies were visible they were washed with PBS. Cells were fixed in −20° C. methanol and stained with 0.5% Crystal violet. Colonies were imaged in camera and counted using Image J (FIJI).

In data set [6] the test system is Akt phosphorylation in Ser473. Kind of data set: Western blot of Akt phosphorylation (pAkt Ser473) after TTFields with BGT226. The data set is classed as cell-based, human. How it is done:
Following TTFields application cells were transferred to cold PBS plates for wash.
RIPA lysis buffer (R0278, Sigma-Aldrich), supplemented with a cocktail of protease (Complete Mini, Roche), and phosphatase inhibitors (Halt #78420, Thermo Scientific) was added to plates and cells were scraped with approximately 100 μl supplemented RIPA buffer for 8 Inovitro™ dishes.
Extracts were shaken at 4° C. for a duration of 30 minutes. Samples were centrifuged (20 min, 14,000 rpm, 4° C.). supernatant was transferred and protein concentration was determined by BCA protein assay kit. […]
After electrophoresis, proteins were transferred to 0.2 μm polyvinylidene difluoride membrane (Immuno-Blot PVDF #162-0177, Bio-Rad) and probed with the appropriate primary antibody: GAPDH (SC-32233, Santa Cruz), Vinculin (ab140007, Abcam), Cyclin D1 (2922, Cell Signaling), Rb (9309, Cell Signaling), pRb S807/811 (8516, Cell Signaling), pAkt 5473, (4051, Cell signaling), Akt (2920, Cell signaling)), FAK (3283S, Cell signaling), Phospho-FAK (Tyr397) (3283S, Cell signaling, Src (2109S, cell signaling) and Phospho-Src (Tyr416) (2101S, Cell signaling). followed by horseradish peroxidase-conjugated secondary antibody (goat anti rabbit 7074, Cell Signaling and goat anti mouse 7076, Cell Signaling) and a chemiluminescent substrate (WBLUF0100, Signa-Aldrich). Quantification of bands was done by Image J software. […]
For orientation: A western blot detects proteins with antibodies after separation by electrophoresis.

Data set [7] has as its system H1299 cells. Kind of data set: Cytotoxicity by cell count, TTFields plus Dasatinib. The data set is classed as cell-based, human. As to conditions: H1299, TTFields 150 kHz, Dasatinib 0.03 μM (IC25) 72 h, then TTFields alone 96 h. The protocol: as §3
as §4, with “Corresponding control experiments were done by placing equivalent cover slips within ceramic dishes into a conventional tissue culture incubator (37° C., 5% CO2) and cells grown in parallel with the TTField-exposed coverslips.” left out
Cells were detached from Inovitro™ dishes with 0.5 ml Trypsin A for approximately 5 minutes and then supplemented with 0.5 ml culture media. 200 μl of cells were taken to 96 well U-shaped plate to be counted in MACSQuant 10 flow cytometer. […]

As for `Cn1cc(C2=C(c3coc4ccc(F)cc34)C(=O)NC2=O)c2cc3c(cc21)OCO3` [9-ING-41], in data set [1], the “efficacy of TTFields treatment in cell cytotoxicity, combination therapy” value is reported as “did not increase efficacy of TTFields treatment”. Also, the “efficacy of TTFields treatment in apoptosis, combination therapy” value in data set [2] is recorded as “did not increase efficacy of TTFields treatment”.

Take `COc1ccc(-c2ccc3ncc4c(c3c2)n(-c2ccc(N3CCNCC3)c(C(F)(F)F)c2)c(=O)n4C)cn1` [BGT226]: the “cell resistance caused by pro-survival signaling by TTFields” value in data set [3] (FIG. 6A-6E, cell line not stated) was “inhibited by BGT226”. In addition, the “cell survival, combination of TTFields with BGT226” value in data set [3] (FIG. 6C, cell line not stated) is reported as “synergistic effect in cell survival”. The “efficacy of combination with TTFields, BGT226 compared with Paclitaxel” value in data set [3] (FIG. 18, BGT226 8 nM or Paclitaxel 2 nM 72 h, then TTFields alone 96 h) was “more effective than Paclitaxel and TTFields”. Also, the “inhibition concentration 25 (IC25)” value in data set [3] (FIG. 18) came out at 8 nM. In data set [4], the “live cells (AnnexinV-/7AAD-), inhibitor alone compared to combined treatment” value is given as “more live cells”. The “apoptotic assay, combined treatment of TTFields and inhibitor” value in data set [4] (cell line not stated) was “induce apoptosis in reminder of cells”. Besides, the “clonogenicity, combination therapy with TTFields” value in data set [5] is reported as “dramatic effect in combination therapy with BGT226 compared to Paclitaxel”. In data set [6] (A2780 cells, BGT226 5 nM for 72 h, then media without inhibitor 96 h, lysate at 168 hours), the “phosphorylation of Akt in Ser473 following combined treatment of TTFields and BGT226” value is “decrease in phosphorylation of Akt in Ser473”. Also, the “increase in Akt phosphorylation following TTFields” value in data set [6] (Western blot, FIG. 5A-5B) is given as “inhibited by BGT226”.

On to `Cc1nc(Nc2ncc(C(=O)Nc3c(C)cccc3Cl)s2)cc(N2CCN(CCO)CC2)n1` [Dasatinib], for which the “treatment efficacy of TTFields plus Dasatinib, cytotoxic effect” value was “increased treatment efficacy relative to TTFields or inhibitor alone in all combination groups” in data set [3] (A2780, TTFields 200 kHz, Dasatinib 0.075 μM (IC25) 72 h, then TTFields alone 96 h) and “increased treatment efficacy relative to TTFields or inhibitor alone in all combination groups” in data set [7].

For `CC(=O)O[C@H]1C(=O)[C@@]2(C)[C@H]([C@H](OC(=O)c3ccccc3)[C@]3(O)C[C@H](OC(=O)[C@H](O)[C@@H](NC(=O)c4ccccc4)c4ccccc4)C(C)=C1C3(C)C)[C@]1(OC(C)=O)CO[C@@H]1C[C@@H]2O` [Paclitaxel], the “cytotoxicity of combination with TTFields” value in data set [3] (FIG. 18, Paclitaxel 2 nM 72 h, then TTFields alone 96 h) is “effective to a lesser extent than that of BGT226”. In data set [3] (FIG. 18), the “inhibition concentration 25 (IC25)” value was found to be 2 nM.
